Key:
[1] = In vitro aldehyde capture capacity test (complexing with nonanal, HPLC at 254 nm)
Description: Objective: dry eye disease is caused by inflammation in eyes, wherein the inflammation may produce aldehydes that will accelerate the inflammation symptoms and worsen the dry eye disease if not eliminated in time. In the experiment, a better compound was selected according to the complexing capacity of the drug and aldehydes in vivo by simulating the in vivo environment.
Procedures: Sulfobutyl-B-cyclodextrin (310 mg) was dissolved in a phosphate buffer (1.25 mL) to prepare a solution.
Nonanal (5.0 mg, 32 μmol, 1.0 eq) and triolein (300 mg) were added to a reaction flask at room temperature, after addition of the prepared solution described above, linoleic acid (300 mg) was added, and finally a dimethyl sulfoxide (0.15 ml) solution containing the compound (32 μmol, 1.0 eq) of the present disclosure was added; the reaction solution was reacted at 20-23° C.
The reaction solution was reacted under stirring for 10 min, 100 min, 200 min, and 300 min respectively, and sampled for high performance liquid chromatography after the solution was stratified after standing for 2 min.
Sampling method: 25 μl of an upper emulsified layer and 50 μl of a lower aqueous phase were sampled by a pipette, and samples were diluted with 1 mL of methanol.
The ultraviolet absorption of the nonanal was weak at 254 nm, so the nonanal had little overall effect on the content of complexed products. Therefore, the percentage contents of complexes at 254 nm under high performance liquid chromatography were compared to observe aldehyde capture and complexing capacities, as shown in FIG. 1 and Table 1:
Taking The compound 7 as an example, after 300 min of reaction, the analytical method for HPLC was XBRIGE 2.5 μm, 3.0*100 mm 5-80CD_XBEH_12 min_0.8.1 cm;
Retention time 6.689 min, 6.787 min, 6.966 min, and 7.102 min were absorption peaks of products complexed with monomolecular aldehyde;
Retention time 8.905 min, 9.010 min, and 9.075 min were absorption peaks of products complexed with bimolecular aldehyde.

CYP1A2 = molecular target: T1, CYP1A2 (Homo sapiens, UniProt P05177); assay: Inhibition of human liver microsomal cytochrome P450 CYP1A2; assay type: in vitro ADME; conditions: human liver microsomes, probe substrate, NADPH
T1 construct: fused human liver microsomes were selected as a CYP450 enzyme source; from tissue; host or cells: pooled ("fused") human liver microsomes
T1 sequence (P05177 1-516): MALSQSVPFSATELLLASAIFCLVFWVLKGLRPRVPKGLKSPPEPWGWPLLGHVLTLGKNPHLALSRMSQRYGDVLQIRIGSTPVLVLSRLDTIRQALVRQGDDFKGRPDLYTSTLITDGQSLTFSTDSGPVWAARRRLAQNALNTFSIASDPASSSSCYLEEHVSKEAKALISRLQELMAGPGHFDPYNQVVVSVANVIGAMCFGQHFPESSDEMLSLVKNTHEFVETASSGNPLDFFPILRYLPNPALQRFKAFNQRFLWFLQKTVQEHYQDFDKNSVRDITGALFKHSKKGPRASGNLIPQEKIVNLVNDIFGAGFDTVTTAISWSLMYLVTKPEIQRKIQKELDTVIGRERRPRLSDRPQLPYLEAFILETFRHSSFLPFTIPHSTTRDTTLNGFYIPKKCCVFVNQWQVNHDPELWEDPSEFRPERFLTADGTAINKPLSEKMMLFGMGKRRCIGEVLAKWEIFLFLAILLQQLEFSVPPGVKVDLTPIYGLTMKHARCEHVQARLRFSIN
Description: (§1) Objective: To study the inhibitory effect of compounds on human liver microsomal cytochrome P450. Experimental procedures: In the study on inhibition of the compounds on the human liver microsomal cytochrome P450 (CYP1A2, CYP2C9, CYP2C19, CYP2D6 and CYP3A4), fused human liver microsomes were selected as a CYP450 enzyme source. […]

CYP2C9 = molecular target: T2, CYP2C9 (Homo sapiens, UniProt P11712); assay: Inhibition of human liver microsomal cytochrome P450 CYP2C9; assay type: in vitro ADME; conditions: human liver microsomes, probe substrate, NADPH
T2 construct: fused human liver microsomes were selected as a CYP450 enzyme source; from tissue; host or cells: pooled ("fused") human liver microsomes
T2 sequence (P11712 whole entry, the tested form may be a part): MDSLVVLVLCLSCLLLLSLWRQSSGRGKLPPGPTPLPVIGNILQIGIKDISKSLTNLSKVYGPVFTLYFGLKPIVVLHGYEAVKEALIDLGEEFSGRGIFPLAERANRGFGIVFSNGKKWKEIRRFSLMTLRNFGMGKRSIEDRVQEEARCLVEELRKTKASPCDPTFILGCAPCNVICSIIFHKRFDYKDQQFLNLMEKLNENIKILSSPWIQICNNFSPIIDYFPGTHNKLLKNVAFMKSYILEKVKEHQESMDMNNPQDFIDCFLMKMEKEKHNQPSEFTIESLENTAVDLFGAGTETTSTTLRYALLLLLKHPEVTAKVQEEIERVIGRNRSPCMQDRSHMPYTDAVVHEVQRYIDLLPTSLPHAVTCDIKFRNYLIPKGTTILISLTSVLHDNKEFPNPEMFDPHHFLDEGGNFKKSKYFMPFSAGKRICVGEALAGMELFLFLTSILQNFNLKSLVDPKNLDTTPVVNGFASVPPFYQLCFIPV
Description: as §1

CYP2C19 = molecular target: T3, CYP2C19 (Homo sapiens, UniProt P33261); assay: Inhibition of human liver microsomal cytochrome P450 CYP2C19; assay type: in vitro ADME; conditions: human liver microsomes, probe substrate, NADPH
T3 construct: fused human liver microsomes were selected as a CYP450 enzyme source; from tissue; host or cells: pooled ("fused") human liver microsomes
T3 sequence (P33261 whole entry, the tested form may be a part): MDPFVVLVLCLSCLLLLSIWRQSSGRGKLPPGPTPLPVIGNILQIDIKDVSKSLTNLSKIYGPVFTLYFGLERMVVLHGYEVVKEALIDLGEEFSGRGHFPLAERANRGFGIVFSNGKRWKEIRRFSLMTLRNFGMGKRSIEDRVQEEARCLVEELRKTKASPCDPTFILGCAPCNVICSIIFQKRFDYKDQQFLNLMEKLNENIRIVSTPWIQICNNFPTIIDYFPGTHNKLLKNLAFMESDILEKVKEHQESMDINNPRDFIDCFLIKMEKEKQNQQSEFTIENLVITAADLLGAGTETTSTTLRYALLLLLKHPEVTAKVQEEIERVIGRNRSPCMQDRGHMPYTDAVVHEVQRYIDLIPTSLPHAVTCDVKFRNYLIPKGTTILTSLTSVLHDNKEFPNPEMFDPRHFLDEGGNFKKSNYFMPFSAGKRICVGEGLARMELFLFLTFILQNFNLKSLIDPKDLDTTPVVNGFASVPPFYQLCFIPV
Description: as §1

CYP2D6 = molecular target: T4, CYP2D6 (Homo sapiens, UniProt P10635); assay: Inhibition of human liver microsomal cytochrome P450 CYP2D6; assay type: in vitro ADME; conditions: human liver microsomes, probe substrate, NADPH
T4 construct: fused human liver microsomes were selected as a CYP450 enzyme source; from tissue; host or cells: pooled ("fused") human liver microsomes
T4 sequence (P10635 whole entry, the tested form may be a part): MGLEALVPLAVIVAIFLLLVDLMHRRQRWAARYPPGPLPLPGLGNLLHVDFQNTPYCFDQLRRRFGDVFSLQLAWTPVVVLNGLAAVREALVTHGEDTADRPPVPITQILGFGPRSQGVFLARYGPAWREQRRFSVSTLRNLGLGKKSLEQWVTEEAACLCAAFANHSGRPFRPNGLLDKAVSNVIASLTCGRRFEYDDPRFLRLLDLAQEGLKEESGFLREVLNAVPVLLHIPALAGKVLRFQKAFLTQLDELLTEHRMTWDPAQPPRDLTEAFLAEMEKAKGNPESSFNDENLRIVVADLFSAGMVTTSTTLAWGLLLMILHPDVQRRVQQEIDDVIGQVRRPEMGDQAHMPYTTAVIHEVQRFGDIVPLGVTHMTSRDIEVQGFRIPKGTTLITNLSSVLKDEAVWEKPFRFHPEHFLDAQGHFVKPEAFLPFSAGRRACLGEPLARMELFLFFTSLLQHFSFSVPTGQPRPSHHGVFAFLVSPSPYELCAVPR
Description: as §1

CYP3A4 = molecular target: T5, CYP3A4 (Homo sapiens, UniProt P08684); assay: Inhibition of human liver microsomal cytochrome P450 CYP3A4; assay type: in vitro ADME; conditions: human liver microsomes, two probe substrates, NADPH
T5 construct: fused human liver microsomes were selected as a CYP450 enzyme source; from tissue; host or cells: pooled ("fused") human liver microsomes
T5 sequence (P08684 whole entry, the tested form may be a part): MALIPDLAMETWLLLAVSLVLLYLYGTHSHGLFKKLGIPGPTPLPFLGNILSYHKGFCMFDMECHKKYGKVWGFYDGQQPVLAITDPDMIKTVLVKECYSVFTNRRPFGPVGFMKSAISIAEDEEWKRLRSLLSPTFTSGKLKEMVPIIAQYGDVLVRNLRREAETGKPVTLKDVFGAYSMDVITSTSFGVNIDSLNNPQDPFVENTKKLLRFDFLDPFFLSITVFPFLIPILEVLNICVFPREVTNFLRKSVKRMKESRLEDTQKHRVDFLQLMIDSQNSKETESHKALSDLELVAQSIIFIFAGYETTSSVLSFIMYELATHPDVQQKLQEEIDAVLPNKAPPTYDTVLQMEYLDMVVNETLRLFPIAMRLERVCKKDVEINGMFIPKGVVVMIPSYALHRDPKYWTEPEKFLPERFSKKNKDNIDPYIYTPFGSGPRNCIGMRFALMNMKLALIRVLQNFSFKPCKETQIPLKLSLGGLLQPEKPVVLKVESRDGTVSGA
Description: as §1

[2] = Pharmacokinetics in SD rats, intravenous injection for 5 consecutive days; assay type: in vivo; conditions: male, Sprague-Dawley (SD), rat, plasma, 20 mg/kg, 20 mg/kg intravenous daily
Description: Objective: To study 5-day Toxicology of Compounds in SD Rats
Experimental materials: SD rats (male, 200-300 g, 7-9 weeks old, Shanghai Lingchang)
Pharmacokinetic profiles of the compound were tested by intravenous injection in rodents according to the standard protocol. In the study, the candidate compound was prepared as a clear solution, and was administered to SD rats at 20 mg/kg by single intravenous injection for 5 consecutive days. A vehicle for intravenous injection was a 10% hydroxypropyl β-cyclodextrin aqueous solution. Whole blood samples were collected at 0.033, 0.083, 0.25, 0.5, 1, 2, 4, 8, and 24 hours postdose on Day 1 and Day 5 of dosing, centrifuged at 3000 r for 10 min, and separated from supernatant to obtain plasma samples. 15 μL of plasma samples were mixed with 300 μL of acetonitrile precipitated proteins containing an internal standard, and 2 μL of the supernatant was injected by centrifugation. Plasma concentrations were quantified by LC-MS/MS analysis, and pharmacokinetic parameters, such as clearance, half-life, and area under the concentration-time curve, were calculated.

[3] = Pharmacokinetics in Beagle dogs, single intravenous injection; assay type: in vivo; conditions: male, dog, plasma, 1 mg/kg single intravenous injection
Description: Objective: To Study Pharmacokinetics of the Compound in Beagle Dogs
Experimental Material: Beagle Dogs (male, 8-11 kg, greater than or equal to 6 months, Marshall)
Pharmacokinetic profiles of the compound were tested by intravenous administration in […] according to the standard protocol. In the study, the candidate compound was prepared as a clear solution, and was administered to Beagle dogs at 1 mg/kg by single intravenous injection. A vehicle for intravenous injection was a 10% hydroxypropyl ß-cyclodextrin aqueous solution. Whole blood samples were collected at 0.033, 0.083, 0.25, 0.5, 1, 2, 4, 8, 12, and 24 hours, respectively, centrifuged at 3000 r for 10 min, and separated from supernatant to obtain plasma samples. 20 μL of plasma samples were mixed with 400 μL of acetonitrile precipitated proteins containing an internal standard, and 2 μL of the supernatant was injected by centrifugation. Plasma concentrations were quantified by LC-MS/MS analysis, and pharmacokinetic parameters, such as clearance, half-life, and area under the concentration-time curve, etc. were calculated.

With `CC(C)(O)c1ccc(-c2cnc(C(C)(C)O)c(N)c2)cc1N` [Compound 3] the “percentage content of complexed products at 254 nm” value (“percentage content … at 254 nm” below) ([1]; Time 10 min) was 3.265%, the “percentage content … at 254 nm” value ([1]; Time 100 min) was 10.569% and the “percentage content … at 254 nm” value ([1]; Time 200 min) was 17.191%. For the same compound, the “percentage content … at 254 nm” value ([1]; Time 300 min) was 22.182%, the “Area under the curve AUC” value ([1]; nonanal 1.0 eq, compound 1.0 eq, 20-23° C., 10-300 min, HPLC 254 nm) was 3979 min. Conversion and the “Slope (linear equation of percentage content of complexed products vs time)” value ([1]; nonanal 1.0 eq, compound 1.0 eq, 20-23° C., 10-300 min, HPLC 254 nm, in %/min) was 0.0652. The IC50 (CYP1A2) was > 50 µM, the IC50 (CYP2C9) was > 50 µM and the IC50 (CYP2C19) was > 50 µM. For the same compound, the IC50 (CYP2D6) was > 50 µM, the IC50 (CYP3A4) was > 50 µM and the clearance ([2]; Day 1) was 7.11 mL/min/kg. For the same compound, the AUC ([2]; Day 1, read-out: Area under the concentration-time curve AUC) was 156 µM·h, the half-life ([2]; Day 1, read-out: Half-time T1/2 (converted)) was 2.45 h and the clearance ([2]; Day 5) was 9.04 mL/min/kg. For the same compound, the AUC ([2]; Day 5, read-out: Area under the concentration-time curve AUC) was 123 µM·h, the half-life ([2]; Day 5, read-out: Half-time T1/2 (converted)) was 2.72 h and the clearance [3] was 15 mL/min/kg. The AUC ([3]; read-out: Area under the concentration-time curve AUC) was 3.71 µM·h and the half-life ([3]; read-out: Half-time T1/2 (converted)) was 2.17 h.

Reference: patent US12479823B2, “Compound for use in retinal diseases” (ZHUHAI UNITED LABORATORIES CO., LTD., priority 2018, dated 2025)
